Consider nine compounds from PMC8745263 (International Journal of Molecular Sciences, 2021).

Entries after “also recorded” stand apart in the source; their conditions may differ. Like-named read-outs stand apart in the source and are kept apart here.

In data set [1] the target is T1, APEH (partially purified from human red blood cells) (Homo sapiens, UniProt P13798).
T1 construct: incubated with APEH partially purified from human blood cells; from tissue; host or cells: human red blood cells (erythrocyte hemolysate from donors' blood)
T1 sequence (P13798 1-732): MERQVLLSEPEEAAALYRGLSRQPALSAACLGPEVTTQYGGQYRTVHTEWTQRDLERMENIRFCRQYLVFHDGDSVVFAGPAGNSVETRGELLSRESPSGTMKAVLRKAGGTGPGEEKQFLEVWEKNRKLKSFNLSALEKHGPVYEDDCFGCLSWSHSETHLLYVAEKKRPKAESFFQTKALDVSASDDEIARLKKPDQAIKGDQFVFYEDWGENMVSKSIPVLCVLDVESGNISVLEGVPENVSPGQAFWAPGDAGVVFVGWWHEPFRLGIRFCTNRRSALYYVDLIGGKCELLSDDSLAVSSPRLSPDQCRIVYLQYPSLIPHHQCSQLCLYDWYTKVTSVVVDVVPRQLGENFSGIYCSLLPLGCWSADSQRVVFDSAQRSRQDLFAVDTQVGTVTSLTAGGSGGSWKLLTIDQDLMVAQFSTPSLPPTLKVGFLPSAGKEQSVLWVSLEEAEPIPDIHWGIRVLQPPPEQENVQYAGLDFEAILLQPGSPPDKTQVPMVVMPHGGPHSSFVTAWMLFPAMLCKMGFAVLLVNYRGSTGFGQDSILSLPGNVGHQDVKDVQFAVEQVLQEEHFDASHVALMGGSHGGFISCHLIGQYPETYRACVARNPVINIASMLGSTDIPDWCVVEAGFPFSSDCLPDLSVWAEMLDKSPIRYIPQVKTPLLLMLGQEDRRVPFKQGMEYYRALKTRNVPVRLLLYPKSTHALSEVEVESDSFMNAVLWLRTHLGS
The experiment in a line: APEH enzyme inhibition assay with substrate Ac-Met-AMC. The class given is biochemical. The following applies: inhibitor 62 µM, APEH sample 0.7 μg, pre-incubated 30 min at 37 °C, then Ac-Met-AMC added; data not shown. On the procedure: Human APEH was obtained as a partially purified product from the red blood cells by a combination of anion exchange and gel filtration chromatography as described. The purification procedure was monitored by SDS-PAGE analysis of active pooled fractions (Supplementary Figure S3). Specifically, each peak fraction eluted from the gel filtration column was assayed with the specific APEH substrate Ac-Met-AMC and analyzed by Western blotting to assess the identity of the enzyme, using the commercial APEH from porcine liver (APEHpl) as control (Supplementary Figure S4A,B). The molecular mass determined by SDS-PAGE of the partially purified protein was 75 kDa, in agreement with that predicted on the basis of the amino acid sequence. Moreover, gel filtration chromatography on Superdex 200 column allowed estimating a molecular mass for the native APEH of […] as calculated by the calibration curve (Supplementary Figure S4A), confirming that the enzyme is a homo-tetramer composed of four 75 kDa subunits, as already reported.
Blood samples were taken from donors using syringes with heparin. […] Enzyme purification was monitored using Ac-Met-7-amino-4-methylcoumarin (AMC) as substrate. Active fractions were analyzed by SDS-PAGE (12%) in order to evaluate the enrichment of the protein during the various purification steps. […]

Data set [2] deals with APEH. The experiment in a line: APEH partially purified from human blood cells (0.7 μg, 24.000 total units) in Tris-HCl 25 mM pH 7.5. The settings on record: 37 °C, up to 48 h.
For another data set, the system named is truncated form of APEH. The following applies: cited from earlier work.
Data set [3] concerns APEH. The settings on record: cited from earlier work.

Regarding `CC(C)CC(O)(CC(C)C)c1cnn(C(=O)N2CCCC2)n1` [AA74-1], the “inhibition of APEH activity” value in data set [1] is given as “totally inhibited”.
For the compound Ac-EYAFAQKYPHTHLVQQA-NH2, the not cleaved in the data set with APEH [2] was 100% intact; N.D. (not degraded) after 48 h.
Regarding Ac-EYM(ox)AAQKYPHTHLVQQA-NH2, the cleaved bond entry with APEH [2] is “Q62-Q; also recorded: H59-L, major”.
Still for that read-out and setting: the result for Ac-EYM(ox)AM(ox)QKYPHTHLVQQA-NH2 reads “Q62-Q; also recorded: H59-L, major”.
With Ac-EYM(ox)FM(ox)QEYPHTHLVQQA-NH2, the not cleaved entry in the data set with APEH [2] is “did not undergo cleavage on Q62”.
As to Ac-EYM(ox)FM(ox)QKYPHTHLVQQA-NH2, the cleaved bond result in the data set with APEH [2] is “H59-L60, major; also recorded: Q62-Q; also recorded: L60-V”.
In the case of Ac-EYMFMQKYPHTHLVQQA-NH2, in the data set on APEH [2], the not cleaved result is “No cleavage was observed; N.D. (not degraded) after 48 h”.
Regarding GIVEQC(ox)C(ox)ASVC(ox)SLYQLENYC(ox)N, in the data set on truncated form of APEH, the cleaved bond result is “A-S and Y-Q”.
For “…^205FGERALKAWSVARL ↓ SQKFPKAEF^227… …^397LGEYGFQNALIVRY ↓ TRKVPQVST^419… …^493DETYVPKAFDEKLF ↓ TFHADICTL^515…”, the cleaved bond entry in the data set with APEH [3] is “L-S and Y-T and F-T”.
